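Step 1: Grow cells in 96-well plates. Step 2: Expose to compound for 48 hours at 5 concentrations. Step 3: Interpolate endpoints linearly; if unreached, use highest concentration. Here, GI50 denotes the concentration required for 50% inhibition of growth.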 The source made the active and inactive calls. No stated cut-off is given here; in the data, active = GI50 up to about 1.1 µM and inactive = higher.

Among the test systems are T47D; MDA-MB-435; BT-549; MCF7; RPMI-8226; DU-145; HCT-15; MDA-MB-231; SR; PC-3; M14; MDA-N; NCI/ADR-RES; CAKI-1; Hs-578T; A498; 786-0; ACHN; NCI-H226.
Holding throughout (test): DTP human tumour cell line panel, 48 h

By GI50 is commonly meant the concentration at which growth is held to half of that of the control. Take `CCOc1ncn(-c2ccc(NC(=S)Nc3cccc(O)c3)cc2)n1`: the GI50 with T47D, with MDA-MB-435, with BT-549, in the assay with MCF7, in the assay on RPMI-8226 and in the assay with DU-145 was > 100 µM (inactive) throughout. Moreover, the GI50 was over 100 µM with HCT-15; > 100 µM (inactive) in the assay on MDA-MB-231; > 100 µM (inactive) in the assay on SR; > 100 µM (inactive) in the assay with PC-3; > 100 µM (inactive) with M14; > 100 µM (inactive) in the assay on MDA-N.
With `CC(=O)O[C@H]1CC[C@H]2[C@@H]3CCC(C(C)=O)[C@H](C(=O)O)[C@H]3CC[C@]12C` (stereo not given in full), the GI50 in the assay on MDA-MB-435, in the assay on BT-549, with MCF7, in the assay with NCI/ADR-RES, with RPMI-8226 and with CAKI-1 was > 100 µM (inactive) each time. The GI50 in the assay on HCT-15 was over 100 µM; in the assay on MDA-MB-231 it was > 100 µM (inactive); with Hs-578T, > 100 µM (inactive); with SR it was > 100 µM (inactive); with PC-3 it was > 100 µM (inactive); with A498, > 100 µM (inactive). Also, in the assay with M14, the GI50 was > 100 µM (inactive).
Consider `COc1cc(OC)cc(Oc2nc3cc(F)c(F)cc3nc2-c2ccccc2)c1`, for which the GI50 with T47D, in the assay with MDA-MB-435, in the assay on BT-549, in the assay on MCF7, in the assay on NCI/ADR-RES and in the assay on CAKI-1 was > 100 µM (inactive) each time. Besides, the GI50 is > 100 µM (inactive) in the assay on DU-145; over 100 µM in the assay on HCT-15; > 100 µM (inactive) in the assay on Hs-578T; > 100 µM (inactive) in the assay with SR; > 100 µM (inactive) in the assay with 786-0; > 100 µM (inactive) in the assay with PC-3. Moreover, the GI50 in the assay on A498, in the assay with M14, with MDA-N, in the assay on ACHN and in the assay on NCI-H226 was > 100 µM (inactive) throughout.
In the case of `N#Cc1c(N)c2c(c(-c3ccccc3)c1-c1ccccc1)C(=O)N(NC(=S)Nc1ccccc1)C2=O`, the GI50 was 48.2 µM (inactive) in the assay on T47D; > 100 µM (inactive) with MDA-MB-435; 89.5 µM (inactive) with BT-549; 60.3 µM (inactive) in the assay with MCF7; 59.3 µM (inactive) with NCI/ADR-RES; 16.7 µM (inactive) with RPMI-8226. Besides, the GI50 in the assay with CAKI-1 is > 100 µM (inactive); in the assay on DU-145, > 100 µM (inactive); in the assay with HCT-15, 71.8 µM; in the assay with MDA-MB-231, > 100 µM (inactive); in the assay on Hs-578T, 39.4 µM (inactive); in the assay with SR it was 68.7 µM (inactive). Further, the GI50 with 786-0 was > 100 µM (inactive); in the assay with PC-3, 30.5 µM (inactive); with A498 it was 43.3 µM (inactive); in the assay on M14, > 100 µM (inactive); in the assay on ACHN it was 94.2 µM (inactive); with NCI-H226, > 100 µM (inactive).
`Cc1c(C#N)c(N)[nH]c(=S)c1C#N`: the GI50 with T47D, with BT-549, in the assay with MCF7, in the assay with RPMI-8226, in the assay on CAKI-1 and in the assay with DU-145 was > 100 µM (inactive) each time. The GI50 in the assay with HCT-15 is over 100 µM; in the assay with MDA-MB-231, > 100 µM (inactive); in the assay on Hs-578T it was > 100 µM (inactive); with SR, > 100 µM (inactive); with 786-0 it was > 100 µM (inactive); in the assay with PC-3, > 100 µM (inactive). Besides, the GI50 in the assay on A498, in the assay with MDA-N, in the assay with ACHN and in the assay with NCI-H226 was > 100 µM (inactive) throughout.
`CCCCCCCCCCCCCCCc1nnc(S)[nH]1`: the GI50 was 79.3 µM (inactive) with RPMI-8226; 48 µM in the assay with HCT-15; 29.6 µM (inactive) with SR; > 100 µM (inactive) in the assay on A498; > 100 µM (inactive) with M14; > 100 µM (inactive) in the assay on ACHN.
In the case of `Brc1ccc2[nH]cc([C@@H]3CN[C@@H](c4c[nH]c5ccc(Br)cc45)CN3)c2c1`, the GI50 in the assay on T47D is 8.13 µM (inactive); in the assay on MDA-MB-435, 3.9 µM (inactive); in the assay with BT-549, 14.8 µM (inactive); in the assay with MCF7, 3.66 µM (inactive); in the assay with NCI/ADR-RES, 7.66 µM (inactive); with RPMI-8226, 2.12 µM (inactive). In addition, the GI50 in the assay on CAKI-1 was 8.93 µM (inactive); in the assay on DU-145, 3.47 µM (inactive); with HCT-15, 9.44 µM; in the assay on MDA-MB-231, 3.79 µM (inactive); in the assay on Hs-578T, 6.95 µM (inactive); in the assay on SR, 1.86 µM (inactive). Also, the GI50 in the assay with 786-0 is 3.94 µM (inactive); in the assay on PC-3, 3.35 µM (inactive); in the assay with A498 it was 15 µM (inactive); in the assay on M14 it was 5.25 µM (inactive); in the assay with ACHN it was 2.33 µM (inactive); in the assay with NCI-H226, 7.55 µM (inactive).
With `COc1ccc2nc3c(C)cc4ccccc4n3c2c1`, the GI50 with T47D was > 100 µM (inactive); in the assay with MDA-MB-435 it was > 100 µM (inactive); in the assay with BT-549, > 100 µM (inactive); in the assay with MCF7, 51.5 µM (inactive); in the assay with NCI/ADR-RES, > 100 µM (inactive); in the assay on RPMI-8226 it was 55.1 µM (inactive). The GI50 is > 100 µM (inactive) in the assay with DU-145; 56.5 µM with HCT-15; 18 µM (inactive) in the assay on Hs-578T; 50.2 µM (inactive) in the assay with SR; 48 µM (inactive) in the assay with 786-0; 46.3 µM (inactive) in the assay with PC-3. The GI50 in the assay on A498 is 11.9 µM (inactive); with M14, > 100 µM (inactive); in the assay on MDA-N, > 100 µM (inactive); with ACHN, 47.3 µM (inactive); with NCI-H226, > 100 µM (inactive).
For `CN1C(=O)C(C#N)C2C[C@@]1(C)Oc1ccccc12` (stereo not given in full), the GI50 in the assay on MDA-MB-435 was > 100 µM (inactive); in the assay on BT-549, 64.9 µM (inactive); in the assay on MCF7, > 100 µM (inactive); in the assay with NCI/ADR-RES, > 100 µM (inactive); with RPMI-8226 it was > 100 µM (inactive); in the assay with CAKI-1, > 100 µM (inactive). The GI50 in the assay with DU-145 was > 100 µM (inactive); in the assay with HCT-15, over 100 µM; in the assay on MDA-MB-231 it was > 100 µM (inactive); with Hs-578T it was > 100 µM (inactive); in the assay on 786-0 it was > 100 µM (inactive); with PC-3, > 100 µM (inactive). The GI50 with A498, in the assay with M14, in the assay on MDA-N, with ACHN and in the assay with NCI-H226 was > 100 µM (inactive) in each case.
With `CC(=O)/N=C1\N/C(=C/c2cc([N+](=O)[O-])ccc2O)CN1C`, the GI50 in the assay on T47D, in the assay on MDA-MB-435, with BT-549, in the assay with MCF7, in the assay on NCI/ADR-RES and in the assay with CAKI-1 was > 100 µM (inactive) each time. In addition, the GI50 in the assay with DU-145 is > 100 µM (inactive); in the assay with HCT-15, over 100 µM; with MDA-MB-231 it was > 100 µM (inactive); with 786-0, > 100 µM (inactive); with PC-3, > 100 µM (inactive); in the assay on M14 it was > 100 µM (inactive). For the same compound, the GI50 with MDA-N, with ACHN and in the assay on NCI-H226 was > 100 µM (inactive) throughout.
Turning to `O=S1(=O)OCCOS(=O)(=O)C1Cc1cccc2ccccc12`, the GI50 with T47D is 39.4 µM (inactive); in the assay on MDA-MB-435 it was 16.2 µM (inactive); in the assay on MCF7, 14.4 µM (inactive); with NCI/ADR-RES, 20.3 µM (inactive); in the assay with RPMI-8226, 39.4 µM (inactive); in the assay with CAKI-1 it was 32.6 µM (inactive). Further, the GI50 with DU-145 is 12 µM (inactive); in the assay on HCT-15, 26.5 µM; with MDA-MB-231 it was 23 µM (inactive); with Hs-578T, 29.9 µM (inactive); with SR, 25.2 µM (inactive); in the assay on 786-0, 21.4 µM (inactive). The GI50 in the assay with PC-3 is 33.2 µM (inactive); in the assay on A498 it was 14.1 µM (inactive); in the assay with M14, 20.7 µM (inactive); in the assay on MDA-N, 21.2 µM (inactive); in the assay on ACHN, 31.5 µM (inactive); in the assay with NCI-H226, 7.83 µM (inactive).
For `CSCCCNC(=O)c1csc(-c2csc(CCNC(=O)CNC(=O)CNC(=O)CNC(=O)OC(C)(C)C)n2)n1`, the GI50 with MDA-MB-435, in the assay with BT-549, with MCF7, with NCI/ADR-RES, in the assay with CAKI-1 and in the assay on DU-145 was > 100 µM (inactive) throughout. Moreover, the GI50 is over 100 µM in the assay with HCT-15; > 100 µM (inactive) with MDA-MB-231; > 100 µM (inactive) in the assay on Hs-578T; > 100 µM (inactive) with 786-0; > 100 µM (inactive) in the assay with PC-3; > 100 µM (inactive) in the assay with A498. Also, the GI50 in the assay with M14, in the assay on MDA-N, in the assay on ACHN and with NCI-H226 was > 100 µM (inactive) in each case.
`O=C1OC(CN2CCOCC2)CN1/N=C/c1ccc([N+](=O)[O-])o1` (stereo not given) [FURALTADONE]: the GI50 in the assay with T47D was 28.8 µM (inactive); in the assay on MDA-MB-435, 18 µM (inactive); in the assay on BT-549, 86.1 µM (inactive); with MCF7, 46 µM (inactive); with NCI/ADR-RES, 35.4 µM (inactive); in the assay on RPMI-8226, 24.2 µM (inactive). The GI50 with CAKI-1 is 38.5 µM (inactive); in the assay with DU-145, 73.3 µM (inactive); in the assay with HCT-15, 17 µM; with MDA-MB-231 it was 33.3 µM (inactive); with Hs-578T, 54.6 µM (inactive); in the assay on SR it was 36.8 µM (inactive). The GI50 with 786-0 was 62.7 µM (inactive); in the assay with PC-3 it was 54.2 µM (inactive); in the assay with M14, 20.7 µM (inactive); in the assay on ACHN, 35.6 µM (inactive); with NCI-H226, 39.1 µM (inactive).

The values are drawn from ChEMBL document CHEMBL1201862, “PubChem BioAssay data set” (2004).
